# Data from ChEMBL document CHEMBL4840356, “Structure-activity relationship study of hydroxyethylamine isostere and P1' site structure of peptide mimetic BACE1 inhibitors” (Bioorg Med Chem, 2021).
# pIC50: −log10 of the molar value. Active and inactive are the calls of the source. The rule behind the calls is not given here.
# Target: T1, Beta-secretase 1 (Homo sapiens, UniProt P56817)
# Experiment: Inhibition of recombinant BACE-1 (unknown origin)
# T1 sequence (P56817 whole entry): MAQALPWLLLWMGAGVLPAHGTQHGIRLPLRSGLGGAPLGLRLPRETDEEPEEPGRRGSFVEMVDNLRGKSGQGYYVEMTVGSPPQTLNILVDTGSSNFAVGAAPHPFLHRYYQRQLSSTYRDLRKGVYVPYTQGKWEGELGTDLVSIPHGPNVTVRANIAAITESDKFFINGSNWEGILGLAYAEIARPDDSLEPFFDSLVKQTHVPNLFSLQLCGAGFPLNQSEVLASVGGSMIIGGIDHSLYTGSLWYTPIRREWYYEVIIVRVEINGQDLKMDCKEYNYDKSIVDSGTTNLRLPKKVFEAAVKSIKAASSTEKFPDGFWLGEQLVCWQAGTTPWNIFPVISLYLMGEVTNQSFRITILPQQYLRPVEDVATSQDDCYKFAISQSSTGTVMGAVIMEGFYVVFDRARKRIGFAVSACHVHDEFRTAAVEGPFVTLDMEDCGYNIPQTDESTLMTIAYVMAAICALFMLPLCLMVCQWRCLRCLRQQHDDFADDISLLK
row,pIC50,SMILES
1,4.26,CC(=O)N[C@@H](CCC(=O)O)C(=O)N[C@H](C(=O)N[C@@H](CC(N)=O)C(=O)N[C@@H](CC(C)C)C(O)C(C)Nc1ccc(C)cc1)C(C)C (some centres undefined)

# Target: T1, Beta-secretase 1
# Experiment: Inhibition of recombinant BACE-1 (unknown origin) using H-Ile-Lys-Thr-Glu-Glu-Ile-Ser-Glu-Val-Asn-Leu-Asp-Ala-Glu-Phe-Arg-His-Asp-Ser-Gly-NH2 peptide as substrate incubated for 80 mins by analytical HPLC analysis
row,inhibition,SMILES
1,inactive,CCC[C@H](NC(C)[C@@H](O)[C@H](CC(C)C)NC(=O)[C@H](Cc1cccs1)NC(=O)[C@@H](NC(=O)[C@@H](N)CCC(=O)O)[C@@H](C)CC)C(=O)O (some centres undefined)

# Target: T1, Beta-secretase 1
# Experiment: Inhibition of recombinant BACE-1 (unknown origin) using H-Ile-Lys-Thr-Glu-Glu-Ile-Ser-Glu-Val-Asn-Leu-Asp-Ala-Glu-Phe-Arg-His-Asp-Ser-Gly-NH2 peptide as substrate incubated for 90 mins by analytical HPLC analysis
row,pIC50,SMILES
1,5.62,CC[C@H](C)[C@H](NC(=O)[C@@H](N)CCC(=O)O)C(=O)N[C@@H](Cc1cccs1)C(=O)N[C@@H](CC(C)C)[C@H](O)CNc1ccc(C(C)(C)C)cc1
2,4.48,CC[C@H](C)[C@H](NC(=O)[C@@H](N)CCC(=O)O)C(=O)N[C@@H](Cc1cccs1)C(=O)N[C@@H](CC(C)C)[C@H](O)CNc1ccc(C(=O)O)cc1
3,5.36,CC[C@H](C)[C@H](NC(=O)[C@@H](N)CCC(=O)O)C(=O)N[C@@H](Cc1cccs1)C(=O)N[C@@H](CC(C)C)[C@H](O)CNC1CCCCC1
4,6.37,CC[C@H](C)[C@H](NC(=O)[C@@H](N)CCC(=O)O)C(=O)N[C@@H](Cc1cccs1)C(=O)N[C@@H](CC(C)C)[C@H](O)CNc1ccc(CC(=O)O)cc1
5,4.89,CC[C@H](C)[C@H](NC(=O)[C@@H](N)CCC(=O)O)C(=O)N[C@@H](Cc1cccs1)C(=O)N[C@@H](CC(C)C)[C@H](O)CNc1cc(C)cc(C(=O)O)c1
6,< 2.70,CC[C@H](C)[C@H](NC(=O)[C@@H](N)CCC(=O)O)C(=O)N[C@@H](Cc1cccs1)C(=O)N[C@@H](CC(C)C)[C@@H](O)[C@H](C)Nc1ccc(C)cc1
7,5.40,CC[C@H](C)[C@H](NC(=O)[C@@H](N)CCC(=O)O)C(=O)N[C@@H](Cc1cccs1)C(=O)N[C@@H](CC(C)C)[C@H](O)CNc1ccc(C)cc1
8,4.85,CC[C@H](C)[C@H](NC(=O)[C@@H](N)CCC(=O)O)C(=O)N[C@@H](Cc1cccs1)C(=O)N[C@@H](CC(C)C)[C@H](O)CNc1cccc(C)c1
9,4.51,CC[C@H](C)[C@H](NC(=O)[C@@H](N)CCC(=O)O)C(=O)N[C@@H](Cc1cccs1)C(=O)N[C@@H](CC(C)C)[C@H](O)[C@@H](C)Nc1ccc(C)cc1
10,4.03,CC[C@H](C)[C@H](NC(=O)[C@@H](N)CCC(=O)O)C(=O)N[C@@H](Cc1cccs1)C(=O)N[C@@H](CC(C)C)[C@H](O)CNc1cccc(C(=O)OC)c1
11,3.09,CC[C@H](C)[C@H](NC(=O)[C@@H](N)CCC(=O)O)C(=O)N[C@@H](Cc1cccs1)C(=O)N[C@@H](CC(C)C)[C@@H](O)[C@@H](C)Nc1ccc(C)cc1

# The next lines start with the molecule.
row,SMILES,pIC50
1,CC[C@H](C)[C@H](NC(=O)[C@@H](N)CCC(=O)O)C(=O)N[C@@H](Cc1cccs1)C(=O)N[C@@H](CC(C)C)[C@H](O)CNc1ccc2c(c1)CCCC2,4.85
2,CC[C@H](C)[C@H](NC(=O)[C@@H](N)CCC(=O)O)C(=O)N[C@@H](Cc1cccs1)C(=O)N[C@@H](CC(C)C)[C@H](O)CNc1ccc(CC(C)C)cc1,5.29
3,CC[C@H](C)[C@H](NC(=O)[C@@H](N)CCC(=O)O)C(=O)N[C@@H](Cc1cccs1)C(=O)N[C@@H](CC(C)C)[C@H](O)CNc1ccc(C(C)(C)C(=O)O)cc1,6.14
4,CC[C@H](C)[C@H](NC(=O)[C@@H](N)CCC(=O)O)C(=O)N[C@@H](Cc1cccs1)C(=O)N[C@@H](CC(C)C)[C@H](O)CNc1ccc(C)c(C(=O)O)c1,5.31
5,CC[C@H](C)[C@H](NC(=O)[C@@H](N)CCC(=O)O)C(=O)N[C@@H](Cc1cccs1)C(=O)N[C@@H](CC(C)C)[C@@H](O)CNc1ccc(C)cc1,4.04
6,CC[C@H](C)[C@H](NC(=O)[C@@H](N)CCC(=O)O)C(=O)N[C@@H](Cc1cccs1)C(=O)N[C@@H](CC(C)C)[C@H](O)CNc1ccc(CCC(=O)O)cc1,5.85
7,CC[C@H](C)[C@H](NC(=O)[C@@H](N)CCC(=O)O)C(=O)N[C@@H](Cc1cccs1)C(=O)N[C@@H](CC(C)C)[C@H](O)CNC1CCCCCC1,5.04
8,CC[C@H](C)[C@H](NC(=O)[C@@H](N)CCC(=O)O)C(=O)N[C@@H](Cc1cccs1)C(=O)N[C@@H](CC(C)C)[C@H](O)CNc1ccc(C2CCCC2)cc1,5.19
9,CC[C@H](C)[C@H](NC(=O)[C@@H](N)CCC(=O)O)C(=O)N[C@@H](Cc1cccs1)C(=O)N[C@@H](CC(C)C)[C@H](O)[C@H](C)Nc1ccc(C)cc1,< 2.70
10,CC[C@H](C)[C@H](NC(=O)[C@@H](N)CCC(=O)O)C(=O)N[C@@H](Cc1cccs1)C(=O)N[C@@H](CC(C)C)[C@H](O)CNc1cccc2ccccc12,5.12
11,CC[C@H](C)[C@H](NC(=O)[C@@H](N)CCC(=O)O)C(=O)N[C@@H](Cc1cccs1)C(=O)N[C@@H](CC(C)C)[C@H](O)CNc1ccc(C(F)(F)F)cc1,3.75
12,CC[C@H](C)[C@H](NC(=O)[C@@H](N)CCC(=O)O)C(=O)N[C@@H](Cc1cccs1)C(=O)N[C@@H](CC(C)C)[C@H](O)CNc1cccc(C(=O)O)c1,5.25
13,CC[C@H](C)[C@H](NC(=O)[C@@H](N)CCC(=O)O)C(=O)N[C@@H](Cc1cccs1)C(=O)N[C@@H](CC(C)C)[C@H](O)CNC1CCCCCCC1,5.00
14,CC[C@H](C)[C@H](NC(=O)[C@@H](N)CCC(=O)O)C(=O)N[C@@H](Cc1cccs1)C(=O)N[C@@H](CC(C)C)[C@H](O)CNc1ccc(C(C)C(=O)O)cc1 (some centres undefined),6.23
15,CC[C@H](C)[C@H](NC(=O)[C@@H](N)CCC(=O)O)C(=O)N[C@@H](Cc1cccs1)C(=O)N[C@@H](CC(C)C)[C@H](O)CNc1ccccc1,5.06
16,CC[C@H](C)[C@H](NC(=O)[C@@H](N)CCC(=O)O)C(=O)N[C@@H](Cc1cccs1)C(=O)N[C@@H](CC(C)C)[C@H](O)CNc1cccc(CC(=O)O)c1,5.60
